Measured values published in patent US6545007B2, “Methods for inhibiting the transmission of HIV using topically applied substituted 6-benzyl-4-oxopyrimidines” (Idenix (Cayman) Limited, priority 2000, dated 2003).
Where two headings read alike, the source gives them in different places.

Experiments:
[1] = system: HIV-1; conditions: MT-4 cells infected with very high virus load; p24 ELISA of cell-free supernatants at 4 day intervals for 4 weeks
From the text: To evaluate the antiviral activity of test compounds the following cell types were used: T lymphocytes (PBLs) and monocytes from peripheral blood of healthy donors; U937, human monocyte cell line permissive for HIV replication; C8166 and MT-4, human CD^4+ T-cell lines permissive for HIV replication; H9, human CD4+ T-cell line permissive for HIV replication, but partially resistant to its cytopathic effect; H9/IIIB, subclone of H9 cells chronically infected with HIV-1 (strain IIIB). […] Cells were grown in RPMI-1640 (H9, MT-4, C8166, U937, PBMC, PBL) or in DMEM (HeLa, ME-180, fibroblasts) medium supplemented with 10% FCS, 100 units/mL penicillin and 100 μg/mL streptomycin. The cultures were incubated at 37° C. in a humidified, 5% CO2 atmosphere. The absence of mycoplasma contamination was periodically checked by the Hoechst staining method.
HIV-1(strains IIIB, NM, RF, Ba-L) and HIV-2 (ROD strain) were obtained from the supernatant of persistently infected cells. The CBL-20 strain of HIV-2, kindly obtained from “MRC AIDS Directed Program Reagent Project”, was propagated in MT-4 cells. Clinical isolates of HIV-1 from peripheral blood and from seminal fluid, were propagated in PBLs. The HIV stock solutions were titrated in C8166 cells and kept at −80° C. until use.
The levels of p24 viral protein were determined in the cell-free culture supernatants by the HIV-1 p24 antigen enzyme-linked immunosorbent assay kit (ELISA, Abbott).
To evaluate the ability of compounds to extinguish the infection, the following experimental conditions were followed. 10^6 MT-4 cells were infected at 20° C. for 1 hr with a very high virus load (up to 10 CCID50/cell; 1 CCID50=25-250 infectious virions), in the absence or in the presence of test compounds. […] For 4 weeks, at 4 days intervals, the anti-HIV activity of test compounds, alone and in combination, was evaluated by determining the following parameters: p24 levels; virus-induced cytopathogenicity; infectious virus yield; DNA and RNA viral sequences (by PCR).

[2] = system: HIV-1 (IIIB strain); format: cell-based; conditions: for EC50: anti-HIV-1 activity; for SI: selectivity index (CC50/EC50)
Outline: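 MT-4 cells (1×10^4/well) were infected with 100 CCID50 HIV-1 IIIB in presence of compound and incubated 4 days at 37 °C. Protection from virus-induced cytopathicity was scored by MTT viability, with cytotoxicity measured in parallel on mock-infected cells.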

[3] = system: mock-infected MT-4 cells; assay: Cytotoxicity: viability of mock-infected cells by the MTT method; format: cell-based, human
Outline: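 Mock-infected MT-4 cells (1×10^4 per well) in RPMI 1640 with 10% FCS exposed to various compound concentrations for 4 days at 37° C, 5% CO2, in parallel with the antiviral assay. Viable cells counted by MTT method.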

[4] = acutely infected MT-4 cells, MTT

Cc1ccnc2c1NC(=O)c1cccnc1N2C1CC1 [Nevirapine, 11-cyclopropyl-5,11-dihydro-4-methyl-6H-dipyridol{3,2-b:2′,3′-e}diazepin-6-one, reference compound]
concentration able to maintain a sustained reduction of p24 in the culture supernatants [1]: 300 µM

Cc1c(C(C)c2c(F)cccc2F)nc(SC2CCCC2)[nH]c1=O (stereo not drawn) [MC-1047, 2-Cyclopentylthio-6-{1-(2,6-difluorophenyl)ethyl}-3,4-dihydro-5-methylpyrimidin-4(3H)-one]
EC50 ([2]; HIV-1-infected MT-4 cells): 9 nM | SI [2]: >22,222 | CC50 [3]: > 200000 nM | concentration able to maintain a sustained reduction of p24 in the culture supernatants [1]: 10 µM

Cc1c(C(C)c2c(F)cccc2F)nc(N(C)C)[nH]c1=O (stereo not drawn) [MC 1220]
concentration able to maintain a sustained reduction of p24 in the culture supernatants [1]: 3.5 µM

CCC(C)Sc1nc(Cc2ccc([N+](=O)[O-])cc2)c(C)c(=O)[nH]1 (stereo not drawn) [MC 924]
EC50 ([2]; HIV-1-infected MT-4 cells): 2000 nM | SI [2]: >100 | CC50 [3]: > 200000 nM

CCNc1nc(Cc2c(F)cccc2F)cc(=O)[nH]1 [MC 1119]
EC50 ([2]; HIV-1-infected MT-4 cells): 800 nM | SI [2]: >250 | CC50 [3]: > 200000 nM

CSCSc1nc(Cc2ccccc2)cc(=O)[nH]1 [MC 1140]
EC50 [2, 4]: 20000 nM | CC50 ([3]; MTT): > 200000 nM

O=c1cc(Cc2c(Cl)cccc2Cl)nc(SC2CCCCC2)[nH]1 [MC 891]
EC50 ([2]; HIV-1-infected MT-4 cells): 600 nM | SI [2]: >333 | CC50 [3]: > 200000 nM

CCC(C)Sc1nc(Cc2ccc([N+](=O)[O-])cc2)cc(=O)[nH]1 (stereo not drawn) [MC 863]
EC50 ([2]; HIV-1-infected MT-4 cells): 1500 nM | SI [2]: 101 | CC50 [3]: 151000 nM

CSc1nc(Cc2c(F)cccc2F)cc(=O)[nH]1 [MC 871]
EC50 ([2]; HIV-1-infected MT-4 cells): 810 nM | SI [2]: 247 | CC50 [3]: 200000 nM

Cc1c(Cc2c(F)cccc2F)nc(SCC(C)C)[nH]c1=O [MC 921]
EC50 ([2]; HIV-1-infected MT-4 cells): 100 nM | SI [2]: 640 | CC50 [3]: 64000 nM

CCC(c1cc(=O)[nH]c(SC(C)C)n1)c1c(Cl)cccc1Cl (stereo not drawn) [MC 1000]
EC50 ([2]; HIV-1-infected MT-4 cells): 400 nM | SI [2]: >500 | CC50 [3]: > 200000 nM

CC(C)Sc1nc(C(C)c2cccc3ccccc23)cc(=O)[nH]1 (stereo not drawn) [MC 971]
EC50 ([2]; HIV-1-infected MT-4 cells): 1100 nM | SI [2]: 108 | CC50 [3]: 119000 nM

CC(C)Sc1nc(Cc2c(Cl)cccc2Cl)cc(=O)[nH]1 [MC 878]
EC50 ([2]; HIV-1-infected MT-4 cells): 1900 nM | SI [2]: >105 | CC50 [3]: > 200000 nM

Cc1c(C(C)c2c(F)cccc2F)nc(SC2CCCCC2)[nH]c1=O (stereo not drawn) [MC 1174]
EC50 [2, 4]: 18 nM | CC50 ([3]; MTT): > 200000 nM

CSc1nc(Cc2c(F)cccc2F)c(C)c(=O)[nH]1 [MC 869]
EC50 ([2]; HIV-1-infected MT-4 cells): 190 nM | SI [2]: 1,053 | CC50 [3]: 200000 nM

CCCCNc1nc(Cc2c(F)cccc2F)c(C)c(=O)[nH]1 [MC 1185]
EC50 [2, 4]: 20 nM | CC50 ([3]; MTT): > 200000 nM

CC1CC(C)CC(Oc2nc(Cc3ccccc3)cc(=O)[nH]2)C1 (stereo not drawn) [MC 512]
EC50 ([2]; HIV-1-infected MT-4 cells): 30000 nM | SI [2]: >6.7 | CC50 [3]: > 200000 nM

CCC(c1cc(=O)[nH]c(SC2CCCC2)n1)c1c(F)cccc1F (stereo not drawn) [MC 1006]
EC50 ([2]; HIV-1-infected MT-4 cells): 150 nM | SI [2]: 1,333 | CC50 [3]: 200000 nM

CCC(c1cc(=O)[nH]c(SC2CCCC2)n1)c1c(Cl)cccc1Cl (stereo not drawn) [MC 1002]
EC50 ([2]; HIV-1-infected MT-4 cells): 1000 nM | SI [2]: 23.4 | CC50 [3]: 23400 nM

CCC(C)Sc1nc(C(c2ccccc2)c2ccccc2)cc(=O)[nH]1 (stereo not drawn) [MC 796]
EC50 ([2]; HIV-1-infected MT-4 cells): > 61000 nM | CC50 [3]: 61000 nM

Cc1c(Cc2c(F)cccc2F)nc(NC2CCCC2)[nH]c1=O [MC 1050]
EC50 ([2]; HIV-1-infected MT-4 cells): 20 nM | SI [2]: >10,000 | CC50 [3]: > 200000 nM

CCC(C)Sc1nc(Cc2ccccc2C)cc(=O)[nH]1 (stereo not drawn) [MC 806]
EC50 ([2]; HIV-1-infected MT-4 cells): 1800 nM | SI [2]: >111 | CC50 [3]: > 200000 nM

CCC(C)Sc1nc(Cc2c(Cl)cccc2Cl)cc(=O)[nH]1 (stereo not drawn) [MC 815]
EC50 ([2]; HIV-1-infected MT-4 cells): 140 nM | SI [2]: >1,428 | CC50 [3]: > 200000 nM

CC(c1cc(=O)[nH]c(NC2CCCC2)n1)c1c(F)cccc1F (stereo not drawn) [MC 1048]
EC50 ([2]; HIV-1-infected MT-4 cells): 30 nM | SI [2]: 2,500 | CC50 [3]: 75000 nM

CCC(C)Sc1nc(Cc2c(F)cccc2F)cc(=O)[nH]1 (stereo not drawn) [MC 848]
EC50 ([2]; HIV-1-infected MT-4 cells): 40 nM | SI [2]: 5,000 | CC50 [3]: 200000 nM

O=c1cc(Cc2c(F)cccc2F)nc(N2CCSCC2)[nH]1 [MC 1193]
EC50 [2, 4]: 50 nM | CC50 ([3]; MTT): > 200000 nM

CN(C)c1nc(Cc2c(F)cccc2F)cc(=O)[nH]1 [MC 1182, 6-(2,6-Difluorophenylmethyl)-3,4-dihydro-2-N,N-dimethylaminopyrimidin-4-(3H)-one]
EC50 [2, 4]: 50 nM | CC50 ([3]; MTT): > 200000 nM

O=c1cc(Cc2c(F)cccc2F)nc(SC2CCCCC2)[nH]1 [MC 870]
EC50 ([2]; HIV-1-infected MT-4 cells): 80 nM | SI [2]: 2,500 | CC50 [3]: 200000 nM

Cc1c(Cc2c(F)cccc2F)nc(N(C)C)[nH]c1=O [MC 1195]
EC50 [2, 4]: 20 nM | CC50 ([3]; MTT): > 200000 nM

CCC(c1cc(=O)[nH]c(SC2CCCCC2)n1)c1c(F)cccc1F (stereo not drawn) [MC 1014]
EC50 ([2]; HIV-1-infected MT-4 cells): 50 nM | SI [2]: 2,600 | CC50 [3]: 130000 nM

CCC(C)Sc1nc(Cc2ccc(Cl)cc2)cc(=O)[nH]1 (stereo not drawn) [MC 859]
EC50 ([2]; HIV-1-infected MT-4 cells): 5000 nM | SI [2]: 24 | CC50 [3]: 120000 nM

CCCCNc1nc(C(C)c2c(F)cccc2F)cc(=O)[nH]1 (stereo not drawn) [MC 1189]
EC50 [2, 4]: 30 nM | CC50 ([3]; MTT): 52000 nM

CCCCSc1nc(C(C)c2c(F)cccc2F)cc(=O)[nH]1 (stereo not drawn) [MC 1045]
EC50 ([2]; HIV-1-infected MT-4 cells): 70 nM | SI [2]: 2,857 | CC50 [3]: > 200000 nM

CCC(C)Sc1nc(Cc2cc(F)cc(F)c2)cc(=O)[nH]1 (stereo not drawn) [MC 1041]
EC50 ([2]; HIV-1-infected MT-4 cells): 1400 nM | SI [2]: >143 | CC50 [3]: > 200000 nM

O=c1cc(Cc2c(F)cccc2F)nc(N2CCCCC2)[nH]1 [MC 1194]
EC50 [2, 4]: 20 nM | CC50 ([3]; MTT): > 200000 nM

CC(c1cc(=O)[nH]c(SC2CCCC2)n1)c1c(Cl)cccc1Cl (stereo not drawn) [MC 996]
EC50 ([2]; HIV-1-infected MT-4 cells): 1000 nM | SI [2]: 78.3 | CC50 [3]: 78300 nM

CC(C)Sc1nc(Cc2c(F)cccc2F)cc(=O)[nH]1 [MC 860]
EC50 ([2]; HIV-1-infected MT-4 cells): 200 nM | SI [2]: >1,000 | CC50 [3]: > 200000 nM

CC(c1cc(=O)[nH]c(SC2CCCCC2)n1)c1c(F)cccc1F (stereo not drawn) [MC 1013]
EC50 ([2]; HIV-1-infected MT-4 cells): 160 nM | SI [2]: >1,250 | CC50 [3]: > 200000 nM
